In brackets after ≈: the same amount, converted by molar mass.
How the values were obtained:
Assay type in all cases: functional
[1] = tested on: Mycobacterium tuberculosis; test: Antimycobacterial activity against multi-drug resistant Mycobacterium tuberculosis TN1811 after 5 days by spectrophotometry; settings: TN1811, 120 h
[2] = tested on: Mycobacterium tuberculosis; test: Antimycobacterial activity against multi-drug resistant Mycobacterium tuberculosis TN2557 after 5 days by spectrophotometry; settings: TN2557, 120 h
[3] = tested on: Mycobacterium tuberculosis; test: Antimycobacterial activity against multi-drug resistant Mycobacterium tuberculosis TN565 after 5 days by spectrophotometry; settings: TN565, 120 h
[4] = tested on: Mycobacterium tuberculosis; test: Antimycobacterial activity against multi-drug resistant Mycobacterium tuberculosis TN576 after 5 days by spectrophotometry; settings: TN576, 120 h
[5] = tested on: Mycobacterium tuberculosis; test: Antimycobacterial activity against multi-drug resistant Mycobacterium tuberculosis TN702 after 5 days by spectrophotometry; settings: TN702, 120 h
[6] = tested on: Mycobacterium tuberculosis; test: Antimycobacterial activity against multi-drug resistant Mycobacterium tuberculosis TN715 after 5 days by spectrophotometry; settings: TN715, 120 h
[7] = tested on: Mycobacterium tuberculosis; test: Antimycobacterial activity against multi-drug resistant Mycobacterium tuberculosis TN768 after 5 days by spectrophotometry; settings: TN768, 120 h
[8] = tested on: Mycobacterium tuberculosis; test: Antimycobacterial activity against multi-drug resistant Mycobacterium tuberculosis TN772 after 5 days by spectrophotometry; settings: TN772, 120 h
[9] = tested on: Mycobacterium tuberculosis; test: Antimycobacterial activity against multi-drug resistant Mycobacterium tuberculosis TN1195 after 5 days by spectrophotometry; settings: TN1195, 120 h
[10] = tested on: Mycobacterium tuberculosis; test: Antimycobacterial activity against multi-drug resistant Mycobacterium tuberculosis TN1314 after 5 days by spectrophotometry; settings: TN1314, 120 h
[11] = tested on: Mycobacterium tuberculosis; test: Antimycobacterial activity against multi-drug resistant Mycobacterium tuberculosis TN1618 after 5 days by spectrophotometry; settings: TN1618, 120 h

## O=C(CCSc1nnc(-c2ccncc2)s1)Nc1ccc(Cl)cc1
[1]
  MIC: 0.03 µg/mL (≈ 0.0796 µM)
[2]
  MIC: 0.13 µg/mL (≈ 0.345 µM)
[3]
  MIC: 0.06 µg/mL (≈ 0.159 µM)
[4]
  MIC: 0.06 µg/mL (≈ 0.159 µM)
[5]
  MIC: 0.25 µg/mL (≈ 0.663 µM)
[6]
  MIC: 0.06 µg/mL (≈ 0.159 µM)
[7]
  MIC: 0.06 µg/mL (≈ 0.159 µM)
[8]
  MIC: 0.03 µg/mL (≈ 0.0796 µM)
[9]
  MIC: 0.25 µg/mL (≈ 0.663 µM)
[10]
  MIC: 0.03 µg/mL (≈ 0.0796 µM)
[11]
  MIC: 0.06 µg/mL (≈ 0.159 µM)

Reference: ChEMBL document CHEMBL3616410, “Linked pyridinyl-thiadiazoles: Design and synthesis as potential candidate for treatment of XDR and MDR tuberculosis” (Eur J Med Chem, 2015)
